Laboratory results reported in patent US20160206608A1 (Pfizer Inc., priority 2011, published 2016).

Experiments:
[1] = tested on: SLC34A2-ROS dependent signaling (ROS, SHP2, STAT3, AKT, ERK1/2) in HCC78 cells; assay: Immunoblot of ROS mediated signal transduction in HCC78 cells; conditions: 3 hours of drug treatment
[2] = tested on: HCC78 human NSCLC cells; assay: Western blot of cleaved caspase-3 (apoptosis) in HCC78 cells; conditions: 3-hour drug treatment
[3] = tested on: 3T3-ROS engineered tumor models (CD74-ROS, SLC34A2-ROS (L), SLC34A2-ROS (S), FIG-ROS (L), FIG-ROS (S)); assay: Panel of ROS fusion engineered 3T3-ROS xenograft tumor models; conditions: PO BID, all five models, nude mice

C[C@@H](Oc1cc(-c2cnn(C3CCNCC3)c2)cnc1N)c1c(Cl)ccc(F)c1Cl [crizotinib, 3-[(R)-1-(2,6-dichloro-3-fluoro-phenyl)-ethoxy]-5-(1-piperidin-4-yl-1H-pyrazol-4-yl)-pyridin-2-ylamine]
inhibition of ROS phosphorylation (activation loop) and downstream SHP2, STAT3, AKT and ERK1/2 [1]: dose dependently inhibited
induction of activated caspase-3 levels [2]: significant dose-dependent induction
cytoreductive effect in 3T3-ROS engineered tumor models [3]: significant cytoreductive effects
